Data: patent US6046224A, “12 (S)--hete receptor blockers” (City of Hope, priority 1998, dated 2000)
“And” between values parts separate entries of the source, which are not always exact repeats. Identical values can stand only once. “Also recorded” adds a separate entry of the source. Counter-ions that a name gives are not always drawn. Like-named read-outs stand apart in the source and are kept apart here.

Tests used:
[1] = test system: Human Aortic Endothelial Cells; assay: Monocyte binding to human aortic endothelial cells, endothelial cells treated; assay type: cell-based
Excerpt: Lipoxygenases (LO) are metabolic enzymes which catalyze the stereospecific oxygenation of polyunsaturated fatty acids to hydroperoxy fatty acids (Hamberg et al., J. Biol. Chem. 242:5329-5335 (1967)). The physiological function of 12-LO, the mammalian enzyme which catalyzes the oxygenation of arachidonic acid to (S)-12-hydroperoxyeicosatetraenoic acid (12-HPETE) and (S)-12-hydroxyeicosatetraenoic acid (12(S)-HETE), is unclear. 12-LO exists as two isoforms which are the products of different genes, leukocyte-type 12-LO and platelet-type 12-LO, which share 65% homology at the amino acid level (Izumi et al., Proc. Natl. Acad. Sci., USA 87:7477-7481 (1990); Funk et al., Proc. Natl. Acad. Sci. USA 87:5638-5642 (1990)). […] 12(S)-HETE has direct mitogenic and hypertrophic effects in vascular cells. […] In addition, glucose-induced monocyte adhesion was abrogated by the inhibition of 12-LO using both phenidone, a non-specific LO inhibitor, and baicalein, a more specific 12-LO inhibitor. The adhesion caused by 12-LO products appears to be monocyte-specific.

[2] = test system: Human Aortic Endothelial Cells; assay: Monocyte adhesion to human aortic endothelial cells, monocytes treated with 12(S)-HETE; assay type: cell-based; settings: monocytes with 10^-9 M 12(S)-HETE, 12 minutes
Protocol: Neutrophil binding is not increased. […] See Example 10.
Monocytes were incubated with 10^-9 M 12(S)-HETE for 12 minutes at room temperature (RT) or 37° C. or left untreated at room temperature and assayed for monocytes adhesion. Eight fields were counted for each experiment.

[3] = test system: 12(S)-HETE receptor (CHO-AT1a cells); assay: [3H]12(S)-HETE binding to CHO-AT1a cells; design: species or system Chinese hamster; settings: for blockade/displacement of [3H]12(S)-HETE binding: CHO-AT1a cells, 4° C.
Protocol: Kinetics of [^3 H]12(S)-HETE binding to CHO-AT1a cells. FIGS. 1 and 2 are a competition curves which examine the specificity of [^3 H]12(S)-HETE binding. CHO-AT1a cells were grown to confluence in 24 well tissue culture dishes in HAM's F12 medium containing 10% fetal calf serum. The cells were then rinsed and placed in fresh medium, HAM's F12/HEPES with no other additives (450 µl per well). Serial dilutions of unlabeled 12(S)-HETE or DuP654 were added to the wells. Commercial unlabeled 12(S)-HETE (BioMol Corp.) was dried and reconstituted in ethanol to obtain a stock solution of 5 mM. DuP654 was dissolved in DMSO to get a stock solution of 5 mM. These were then serially diluted and added in a volume of 1 u1 to the wells to obtain the final concentrations indicated. Then [^3 H]12(S)-HETE (10,000 cpm in a volume of 50 µl per well) was added from a stock solution obtained by adding the tracer to the medium. The plates were then incubated at 4° C. with continuous shaking for 2 hr. The cells were then washed 2 times with cold PBS and lysed in 0.3N NaOH (200 u1). Radioactivity in the cell lysates was quantitated in scintillation counter. Affinities and binding constants were obtained using […] computer software (Mlab, Civilized Software Inc., Bethesda, Md.).
Tritrated 12(S)-HETE binding is blocked by unlabeled 12(S)-HETE. DuP654, a 12(S)-HETE receptor antagonist, was shown also to block 12(S)-HETE at a concentration of 0.1 μM in both AT1a Σ and AT1a 27 cell types, two clones of CHO cells which overexpress the AII1a receptor. The cells were grown as described in Example 1.
Blockade of 12(S)-HETE binding by pertussis toxin. Cells were grown as described in Example 1. Prior to addition of drug (12(S)-HETE or DuP654) to the cells, the cultures were preincubated in HAM's F12 medium +0.1% BSA for two hours at 37° C. with or without 100 ng/ml pertussis toxin. Serial dilutions of unlabeled 12(S)-HETE or DuP654 were added, followed by [^3 H]12(S)-HETE as described for Example 1. After incubation and washing, radioactivity in the cell lysates was quantitated. As discussed above, pertussis toxin could also ablate 12(S)-HETE-induced mitogenic effects. This implicates the involvement of a Gi -protein-coupled receptor.

[4] = test system: 12(S)-HETE receptors on the human epidermal cell line SCL-II; settings: Arenberger et al. 1993; cited from earlier work
CHO-AT1a cells [5] = assay: Growth/mitogenesis of CHO-AT1a cells; assay type: cell-based, Chinese hamster
Protocol: Partial blockade of 12(S)-HETE mitogensis by the specific angiotensin AT1a receptor antagonist, Losartan, in CHO-AT1a cells. (FIG. 5) CHO-AT1a cells were plated in 12-well dishes (about 5-10,000 cells per well) for 24 hr. in growth medium consisting of HAM's, F12+10% FCS. They were then serum depleted for 72 hours by replacing the medium with HAM's F12+0.1% BSA. This medium was then freshly replaced along with AII or 12-HETE (0.1 μM each) prior to addition of drug to the cells. Losartan was added as a solution in water to the cells 15 min. prior to the addition of AII or 12-HETE. Fresh medium containing the same concentrations of AII or 12(S)-HETE plus Losartan was replaced every 48 hours. At the end of 8 days, the medium was removed, and 1 ml trypsin was added per well followed by 1 ml isoton after 3 min. These trypsinized cells were counted on a Coulter counter. […] 12-HETE binding (FIG. 4).
The three cell lines, CHO-AT1a, CHO-AT1b and mock transfected CHO cells were gifts from Dr. Eric Clauser (Inserm Unit, Paris, France). These cells were plated in 12 well dishes in HAM's F12 medium +10% FCS. After 72 hours serum depletion in HAM's F12+0.05% FCS, the cells were treated with AII or 12(S)-HETE (0.1 μM). Cells counts (after trypsinization) were taken at 48 hour intervals and fresh medium along with AII or 12-HETE added at these 48 hour intervals.

PAK [6] = assay: PAK activity in CHO-AT1a cells; assay type: cell-based, Chinese hamster; settings: 10^-7 M 12(S)-HETE, 10 minutes
Protocol: CHO-AT1a cells were gently washed and placed in depletion medium (HAM's F-12 medium containing 1 mg.backslash.ml BSA and 20 mM HEPES, ph 7.4) for 72 hours prior to use. After incubation for 30 minutes, the cells were treated with 10^-7 M 12(S)-HETE or with ethanol. The 12(S)-HETE treatment was terminated by washing twice with PBS and adding 300 μl lysis buffer (50 mM HEPES. pH 7.5, containing 150 mM NaCl, 5 mM MgCl2, 1 mM EGTA, 50 mM NaF, 10 mM sodium pyrophosphate, 1% NP-40, 2.5% glycerol and 1 mM Na3 VO4 containing the protease inhibitors phenylmethylsulfonyl fluoride, leupeptin, and aprotonin) followed by sedimentation at 14,000× g at 4° C. for ten minutes. Protein determination was performed by the Bradford method. […] PAK activity was measured as follows. […] ATP, the kinase activity was measured in 60 μl kinase buffer. […] Results are expressed as stimulation over control.
For the PBD-transfected group, CHO-AT1a cells were transiently transfected with 15 μg PBD plasmid. […] The bottom panel illustrates the densitometric quantification. […] Results are expressed as stimulation over control. The PAK activity was measured as described in Example 7.
Cells were pretreated with different concentrations of the PI-3 kinase inhibitor, LY294002 or DMSO (control) for 30 minutes, then treated with 10^-7 M 12(S)-HETE or ethanol (control) for 10 minutes. PAK activity was measured as described in Example 7.

CHO-AT1a cells [7] = settings: cited from earlier work; for inhibition of 12(S)-HETE-induced mitogenic effects (pertussis toxin): pretreatment of cells
[8] = test system: AII-induced proliferation; settings: cited from earlier work
12-LO [9] = settings: Scheidegger et al. 1997; cited from earlier work
[10] = test system: c-jun amino terminal kinase (JNK); settings: cited from earlier work
PAK [11] = settings: cited from earlier work
12-LO [12] = settings: cited from earlier work
[13] = HAEC incubated four hours with 12(S)-HETE, 240 min

In the case of CCCCC/C=C\C[C@H](O)/C=C/C=C\C/C=C\CCCC(=O)O [12(S)-HETE, (S)-12-hydroxyeicosatetraenoic acid], the “average increase in monocyte binding as compared to untreated cells” value [1, 13] is reported as 3 fold, the “range of increase in monocyte binding as compared to untreated cells” value [1, 13] is reported as 1.5-5 fold and the “Monocyte Adhesion to Human Aortic Endothelial Cells, 12(S)-HETE (37° C.)” value ([2]; 37° C., P = 0.01) is reported as 39.0 ± 9.3. For the same compound, the “Monocyte Adhesion to Human Aortic Endothelial Cells, 12(S)-HETE (RT)” value ([2]; RT, exp. 1 P = 0.016, exp. 2 P = 0.001) was 39.6 ± 12.5 and 45.4 ± 7.6.
In the case of Oc1c(Cc2ccccc2)ccc2ccccc12 [DuP654, 2-phenylmethyl-1-naphthol], the “blockade of 12(S)-HETE binding at 0.1 μM” value ([3]; 0.1 μM, AT1a Σ and AT1a 27 clones) is listed as “block”, the “inhibition of 12(S)-HETE binding to SCL-II cells” value [4] is listed as “specifically inhibit” and the “reduction of 12(S)-HETE-induced cell growth at 0.1 μM” value (CHO-AT1a cells [5]; 12(S)-HETE-induced, 0.1 μM) is listed as “significantly reduced”. The “inhibition of 12(S)-HETE-induced mitogenic effects” value (CHO-AT1a cells [5]; 12(S)-HETE-induced, CHO-AT1a cells) was “completely inhibit; also recorded: Complete inhibition” and the “reduction of AII-induced cell growth at 0.1 μM” value (CHO-AT1a cells [5]; AII-induced, 0.1 μM) was “significantly reduced”.
With O=c1cc(N2CCOCC2)oc2c(-c3ccccc3)cccc12 [LY294002] the “inhibition of 12(S)-HETE-induced PAK activation” value (PAK [6]) was “inhibition”.
In the case of CCCCc1nc(Cl)c(CO)n1Cc1ccc(-c2ccccc2-c2nn[nH]n2)cc1 [Losartan, 2-N-butyl-4-chloro-5-hydroxymethyl-1-[(2'-(1H-tetrazol-5-yl)biphenyl-4-yl)methyl]imidazole, potassium salt], the “blockade/displacement of [3H]12(S)-HETE binding” value (from here on “blockade/displacement”) ([3]; potassium salt) is reported as “partially blocked”, the “inhibition of 12(S)-HETE-induced mitogenic effects” value (CHO-AT1a cells [5]; 12(S)-HETE-induced, CHO-AT1a cells, potassium salt) is reported as “partially blocked” and the “inhibition of AII-induced proliferative effects” value (CHO-AT1a cells [5]; AII-induced, CHO-AT1a cells, potassium salt) is reported as “fully inhibiting; also recorded: fully blocked”.
In the case of O=c1cc(-c2ccccc2)oc2cc(O)c(O)c(O)c12 [baicalein], the “inhibition of AII proliferative effects” value (CHO-AT1a cells [7]; AII-induced, CHO-AT1a cells) is listed as “inhibited”, the “inhibition of glucose-induced monocyte adhesion” value [1] is listed as “abrogated” and the “inhibition of proliferative effects of AII” value [8] is listed as “inhibited”.
With O=C1CCN(c2ccccc2)N1 [phenidone] the “inhibition of glucose-induced monocyte adhesion” value [1] was “abrogated”.
In the case of “AII: growth factor and potent vasoconstrictor AII”, the “mitogenic effects in CHO-AT1a cells” value (CHO-AT1a cells [7]; Wen et al. 1996) is given as “sustained increase in DNA synthesis as well as cell number”, the “stimulation of 12-LO activity in murine macrophages” value (12-LO [9]) is given as “stimulate” and the JNK activation ([10]; Wen et al. 1997) is given as “activate”. The “PAK activation by AII” value (PAK [11]) was “activate” and the “stimulation of 12-LO activity in smooth muscle cells” value (12-LO [12]) was “stimulate”.
In the case of pertussis toxin, the “blockade/displacement” value [3] is listed as “Blockade”, the “blockade/displacement” value ([3]; listed as Pertussis toxin) is listed as “blocked” and the “inhibition of 12(S)-HETE-induced mitogenic effects (pertussis toxin)” value (CHO-AT1a cells [7]) is listed as “completely abrogated; also recorded: ablate”. For the same compound, the “inhibition of 12(S)-HETE-induced mitogenic effects (pertussis toxin)” value (CHO-AT1a cells [7]; listed as Pertussis toxin) was “ablate” and the “blockade of JNK activation by 12(S)-HETE” value ([10]; 12(S)-HETE-induced) was “block”.
